Data published in patent publication US20140154342A1, “SANDALWOOD OIL AND ITS USES RELATED TO SKIN DISORDERS” (SANTALIS PHARMACEUTICALS INC., priority 2011, published 2014).
≈ marks a conversion by molar mass, not a printed value.

Tests used:
IL-6 = IL-6 expression in conditioned media of LPS stimulated dermal fibroblasts by ELISA; type: cell-based; details: Fibroblast, 24 h, read-out: IC50, suppression of IL-6 expression
Description: Dermal fibroblasts were treated with LPS+S1 or S2 at 5-40 μg/ml for 24 h. […] Ibuprofen suppressed IL-6 expression with IC50 of ˜40 μg/ml.

dermal fibroblasts = details: 24 h
MCP-1 = MCP-1 expression in conditioned media of LPS stimulated dermal fibroblasts by ELISA; type: cell-based; details: at 40-160 μg/ml

Structure (SMILES): CC(C)Cc1ccc(C(C)C(=O)O)cc1 (stereo not drawn) [Ibuprofen]
- IC50 (IL-6): ~40 µg/mL (≈ 194 µM)
- concentration with cytotoxic effect (no adverse effects / no cytotoxicity up to the value) (dermal fibroblasts): > 160 µg/mL
- suppression of MCP-1 expression (MCP-1): ~10 fold
